Source: ChEMBL document CHEMBL3763150, “New antibacterial isocoumarin glycosides from a wetland soil derived fungal strain Metarhizium anisopliae” (2016)
≈ marks a conversion by molar mass, not a printed value. Calls of active or inactive are those of the source. The rule behind the calls is not given here.

Tests used:
Pseudomonas aeruginosa [1] = assay: Antibacterial activity against clinical isolates of Pseudomonas aeruginosa PAOA incubated for 20 hrs by two fold dilution method; assay type: functional
Pseudomonas aeruginosa [2] = assay: Antibiofilm activity against clinical isolates of Pseudomonas aeruginosa PAOA at 16 to 64 ug/ml incubated for 20 hrs by crystal violet staining based spectrophotometric analysis; assay type: functional, organism-based
Pseudomonas aeruginosa [3] = assay: Antibacterial activity against clinical isolates of Pseudomonas aeruginosa PAOA assessed as inhibition of pyocyanine secretion at 64 ug/ml; assay type: functional, organism-based
Pseudomonas aeruginosa [4] = assay: Antibacterial activity against clinical isolates of Pseudomonas aeruginosa PAOA assessed as inhibition of rhamnolipid secretion at 32 ug/ml; assay type: functional, organism-based
Pseudomonas aeruginosa [5] = assay: Antibacterial activity against clinical isolates of Pseudomonas aeruginosa PAOA assessed as inhibition of rhamnolipid secretion at 64 ug/ml; assay type: functional, organism-based

| Structure (SMILES) | MIC (Pseudomonas aeruginosa [1]) | also measured |
| --- | --- | --- |
| C/C=C/CCc1cc2cc(O[C@@H]3O[C@H](CO)[C@@H](OC)[C@H](O)[C@H]3O)c(OC)c(O)c2c(=O)o1 | > 128 µg/mL | – |
| C/C=C/CC[C@H]1Cc2cc(O[C@@H]3O[C@H](COC(C)=O)[C@@H](OC)[C@H](O)[C@H]3O)c(OC)c(O)c2C(=O)O1 | > 128 µg/mL | Activity (Pseudomonas aeruginosa [2]): Active; inhibition (Pseudomonas aeruginosa [3]): Active; inhibition (Pseudomonas aeruginosa [4]): Active; inhibition (Pseudomonas aeruginosa [5]): Active |
| O=C1C=C(Br)/C(=C/Br)O1 | 128 µg/mL (≈ 504 µM) | Activity (Pseudomonas aeruginosa [2]): Active; inhibition (Pseudomonas aeruginosa [4]): Active |
| C/C=C/CC[C@H]1Cc2cc(O)c(O[C@@H]3O[C@H](CO)[C@@H](OC)[C@H](O)[C@H]3O)c(O)c2C(=O)O1 | > 128 µg/mL | – |
| C/C=C/CC[C@H]1Cc2cc(O[C@@H]3O[C@H](CO)[C@@H](OC)[C@H](O)[C@H]3O)cc(O)c2C(=O)O1 | > 128 µg/mL | – |
| C/C=C/CC[C@H]1Cc2c(O)c(O[C@@H]3O[C@H](CO)[C@@H](OC)[C@H](O)[C@H]3O)cc(O)c2C(=O)O1 | > 128 µg/mL | – |
| C/C=C/CC[C@H]1Cc2cc(O[C@@H]3O[C@H](CO)[C@@H](OC)[C@H](O)[C@H]3O)c(OC)c(O)c2C(=O)O1 | > 128 µg/mL | – |
| C/C=C/C=C/[C@H]1Cc2cc(O[C@@H]3O[C@H](CO)[C@@H](OC)[C@H](O)[C@H]3O)c(OC)c(O)c2C(=O)O1 | > 128 µg/mL | – |
| C/C=C/C=C/[C@H]1Cc2cc(O[C@@H]3O[C@H](CO)[C@@H](OC)[C@H](O)[C@H]3O)cc(O)c2C(=O)O1 | > 128 µg/mL | – |
